For experiment [1], the system named is 1,4 β-D-glucanase (EC 3.2.1.4). The experiment is described as follows: Induction of a 1,4 β-D-glucanase response in elicited cells. Type of experiment: cell-based, Acer pseudoplatanus L. The note with it: 50 nM elicitor; for 1,4 β-D-glucanase response R: 42 hours; for 1,4 β-D-glucanase early response R: after 20 minutes. As to the method:
(§1) Vegetable material: Acer pseudoplatanus L Cells in Suspension
(§2) Test: 2.10^6 Acer pseudoplatanus L. cells were elicited under circular stirring (80 rpm), in 25 ml of culture medium (without 2,4-D) by 50 nM of 2′-fucosyl lactose (compound A) or 50 nM of methyl α-L-Fuc (1→2) β-D-Gal (1→2) β-D-Xyl trisaccharide (compound B)(synthesized according to Lopez et al., 1994) or for a variable time (0 to 42 hours) in the presence or not in the presence of an effector: cycloheximide (1 μM), okadaic acid (5 nM), staurosporine (500 nM), or boroglycine (500 nM). The elicitation experiment is stopped by putting the cells in ice. The cells recovered after decantation and taken up in approximately 1 ml of elicitation buffer are the subject of a specific protein extraction.
(§3) D-glycosylhydrolase extraction. The enzyme extracts are prepared from elicited or non-elicited cells. The cells are homogenized at 0° C. in Tris-HCl buffer (50 mM pH 7.2) containing 1 M of NaCl with a Vibracell™ Bioblock sonicator, maximum power, for 3 times 1 minute. The homogenates are centrifuged at 4° C. (12000 g, 15 minutes) then dialysed and concentrated on Ultrafree™ Millipore ultrafiltration units (cut-off threshold 10 kDa). The retentates, taken up in distilled water, are crude extracts.
1,4 β-D-glucanase activity assay. This is based on colorimetric assay (ferricyanide test of Kidby and Davidson (1973) of the cellopentaose substrate reducing units released during the hydrolysis. The reaction medium contains the enzyme extract (1 μg of proteins), reduced cellopentaose (4 μM) in 100 μl of sodium acetate buffer (0.1 M), pH 5.0); the enzymatic reaction at 40° C. develops over a variable time (1 to 3 hours).
(§4) Evaluation of the experimental data. At least 2 kinetics were carried out per sample, and per set of experiments. The reaction rate (ΔA410 minutes^−1 for example) is obtained by linear regression from 4 kinetic curves. The results are expressed by the ratio R (enzymatic activity in elicited cells/enzymatic activity in non-elicited control cells).

Experiment [2] deals with Rubus fruticosus protoplasts. The experiment is described as follows: Elicitation of an oxidative burst: generation of superoxide anion (Cyt c assay). Type of experiment: cell-based. The settings on record: 25° C.; for Cytochrome c reduction response (100% = non-elicited controls): at 10 nM; for Optimal response, cytochrome c reduction (100% = non-elicited controls): at the optimal dose. As to the method:
Preparation of Rubus fruticosus protoplasts according to Vargas-Rechia (1998). The protoplast yield is of the order of 70 to 85% of the initial number of cells used; the viability of the protoplasts, of the order of 90 to 95%, was checked using Evans blue indicator.
The Cyt c assay was carried out according to Nakanishi et al. (1991) in the following manner. Incubation at 25° C. of 4.10^6 protoplasts in the presence of Cyt c (100 μM), and of the elicitor (0 to 100 μM): 2′-fucosyl lactose (compound A), XXFGol (compound B).
Evaluation of the experimental data: The reaction rate is given by (AF340 min^−1). At least three kinetic curves are plotted per experimental condition. One point on the graph corresponds to the slope of the regression curve deduced from at least 6 kinetic curves.
The elicitation response is evaluated according to the cytochrome c reduction measured by the absorbance variation at […]; the 100% reference value corresponds to the reduction count of the controls (non-elicited protoplast suspensions).

The test system of experiment [3] is β-D-xylosidase (EC 3.2.1.37). The experiment is described as follows: Induction of a β-D-xylosidase response in elicited cells. It counts as cell-based, Acer pseudoplatanus L. The note with it: 50 nM elicitor; for β-D-xylosidase response R (activity in elicited cells/non-elicited control cells), maximal: 15 minutes; for β-D-xylosidase response: 42 hours; for β-D-xylosidase response R: after 1 hour. As to the method: as §1, §2, §3
β-D-xylosidase activity assay according to the protocol of Lee and Zeikus (1993) after incubation of the enzyme extracts (2 to 4 μg of proteins) in sodium acetate buffer (0.1 M, pH 5), at 40° C. for a variable time (90 to 210 minutes), in the presence of p-nitrophenyl β-D-xylopyranoside (p-NPX) substrate (7.3 μM). After addition of Na2CO3 (0.1 M), the products released are assayed by spectrophotometry at 410 nm.
as §4

Experiment [4] deals with glutathione-reductase (EC 1.6. 4.2). The experiment is described as follows: Elicitation of glutathione-reductase activity in protoplasts. It counts as cell-based, Rubus fruticosus L. The note with it: for Optimal glutathione reductase elicitation response (100% = non-elicited controls): at the optimal dose. The source says:
Preparation of Rubus fruticosus L. protoplasts according to Vargas-Rechia et al. (1998). The protoplast yield is of the order of 70 to 85% of the initial number of cells used; the viability of the protoplasts, of the order of 90 to 95%, was checked using Evans blue indicator.
Glutathione-reductase (GR) activity assay according to Jahnke L S et al. (1991):
GSSG (glutathione in oxidized form) is reduced to GSH (glutathione in reduced form) by the enzyme glutathione-reductase (EC 1.6. 4.2); the reaction is coupled with the oxidation of NADPH to NADP in the catalytic cycle (glutathione, glutathione-reductase, NADPH). The glutathione-reductase activity is measured by evaluating the formation of NADP in the medium, which is carried out by monitoring the absorbance reduction at 340 nm.
Test: 4.10^6 protoplasts in 1 ml of Tris-HCl buffer (pH 4.8) are incubated at 10° C., 15° C., 25° C. in the presence of the elicitor (0 to 100 μM): 2′-fucosyl lactose (compound A), xyloglucan XXFGol (compound B). After interaction for 10 minutes, an enzymatic extract is prepared according to Jahnke et al. (1991), and a 16.000 g aliquot of the supernatant (equivalent to 1 μg of proteins) is introduced into the pH 7.8 reaction medium (80 mM K2PO4, 500 μM GSSG, 150 μM NADPH, 200 μM DTPA) for the glutathione-reductase activity assay; the A340 recording is carried out for 1 minute using a Beckman D U 640 spectrophotometer.
Evaluation of the experimental data: The reaction rate is given by ΔA340 min^−1. At least three kinetic curves are plotted per experimental condition and per sample. One point on the graph corresponds to the value of the slope of the regression curve deduced from at least 6 kinetic curves.
The elicitation response is evaluated by measuring the formation of NADP at 340 nm. The 100% reference value corresponds to the NADP content in the controls (non-elicited protoplast suspensions).

Consider `CO[C@@H]1OC[C@@H](O)[C@H](O)[C@H]1O[C@@H]1O[C@H](CO)[C@H](O)[C@H](O)[C@H]1O[C@@H]1O[C@@H](C)[C@@H](O)[C@@H](O)[C@@H]1O` [compound B, methyl α-L-Fuc (1→2)β-D-Gal (1→2)β-D-Xyl], for which, in experiment [1], the “1,4 β-D-glucanase response R” value is roughly 4 and the “1,4 β-D-glucanase early response R” value is recorded as roughly 5. In addition, in experiment [2], the “Elicitor dose of optimal response, cytochrome c reduction (superoxide anion)” value worked out at 15 nM; the “Cytochrome c reduction response (100% = non-elicited controls)” value is listed as 160%; the “Optimal response, cytochrome c reduction (100% = non-elicited controls)” value was 159%. In experiment [3], the “β-D-xylosidase response R (activity in elicited cells/non-elicited control cells), maximal” value is 5; the β-D-xylosidase response result is recorded as “no significant response”; the “β-D-xylosidase response R” value stood at 1.
For `C[C@@H]1O[C@@H](O[C@H]2[C@H](O[C@H]3[C@H](O)[C@@H](O)[C@H](O)O[C@@H]3CO)O[C@H](CO)[C@H](O)[C@@H]2O)[C@@H](O)[C@H](O)[C@@H]1O` [compound A, α-L-Fuc(1→2)β-D-Gal(1→4)β-D-Glc], in experiment [1], the “1,4 β-D-glucanase response R” value was roughly 4 and the “1,4 β-D-glucanase early response R” value is roughly 5. In experiment [4] (10° C.), the “Elicitor dose of optimal glutathione reductase elicitation response” value came to 25 nM and the “Optimal glutathione reductase elicitation response (100% = non-elicited controls)” value was 2500%. Also, in experiment [4] (15° C.), the “Elicitor dose of optimal glutathione reductase elicitation response” value was 100 nM and the “Optimal glutathione reductase elicitation response (100% = non-elicited controls)” value turned out to be 780%. In addition, the “Glutathione reductase elicitation response” value in experiment [4] (25° C.) was “no significant response”. Further, in experiment [2], the “Elicitor dose of optimal response, cytochrome c reduction (superoxide anion)” value was found to be 50 nM; the “Cytochrome c reduction response (100% = non-elicited controls)” value is on record as 187%; the “Optimal response, cytochrome c reduction (100% = non-elicited controls)” value is given as 200%. In experiment [3], the “β-D-xylosidase response R (activity in elicited cells/non-elicited control cells), maximal” value is 9; the β-D-xylosidase response result is “no significant response”; the “β-D-xylosidase response R” value is given as 1.

For the origin of these results see patent publication US20040023924A1, “Use of xyloglucan polymers and oligomers, and derivative compounds, as phytosanitary products and biofertilizers” (priority 2000, published 2004).
